Our source for the IC50 values is patent US20240409538A1, “SUBSTITUTED TRIAZOLOHETEROARYL COMPOUNDS AS USP1 INHIBITORS AND THE USE THEREOF” (IMPACT THERAPEUTICS (SHANGHAI), INC., priority 2021, published 2024).

Structures are written as SMILES.

USP1/UAF1, sequence (O94782 whole entry): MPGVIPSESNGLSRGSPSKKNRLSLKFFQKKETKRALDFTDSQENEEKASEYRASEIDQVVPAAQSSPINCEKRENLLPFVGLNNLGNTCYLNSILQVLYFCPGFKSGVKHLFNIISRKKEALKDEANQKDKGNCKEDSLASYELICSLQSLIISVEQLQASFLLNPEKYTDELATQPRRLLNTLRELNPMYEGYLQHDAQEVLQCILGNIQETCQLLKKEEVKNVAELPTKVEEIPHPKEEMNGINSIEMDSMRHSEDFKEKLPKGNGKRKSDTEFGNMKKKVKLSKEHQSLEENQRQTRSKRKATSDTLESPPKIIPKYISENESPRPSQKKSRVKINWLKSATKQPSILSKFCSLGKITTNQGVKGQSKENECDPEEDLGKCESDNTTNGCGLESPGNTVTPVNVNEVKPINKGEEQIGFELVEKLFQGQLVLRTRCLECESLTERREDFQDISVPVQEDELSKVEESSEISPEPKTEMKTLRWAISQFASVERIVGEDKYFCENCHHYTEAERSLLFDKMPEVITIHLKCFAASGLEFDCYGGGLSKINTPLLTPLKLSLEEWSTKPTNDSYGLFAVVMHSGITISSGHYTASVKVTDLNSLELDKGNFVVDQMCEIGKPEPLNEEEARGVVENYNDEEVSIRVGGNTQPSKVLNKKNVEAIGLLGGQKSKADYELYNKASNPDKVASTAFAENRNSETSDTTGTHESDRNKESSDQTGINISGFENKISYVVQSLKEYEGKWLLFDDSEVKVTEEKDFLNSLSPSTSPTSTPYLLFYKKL
USP1/UAF1, sequence (Q8TAF3 whole entry partner): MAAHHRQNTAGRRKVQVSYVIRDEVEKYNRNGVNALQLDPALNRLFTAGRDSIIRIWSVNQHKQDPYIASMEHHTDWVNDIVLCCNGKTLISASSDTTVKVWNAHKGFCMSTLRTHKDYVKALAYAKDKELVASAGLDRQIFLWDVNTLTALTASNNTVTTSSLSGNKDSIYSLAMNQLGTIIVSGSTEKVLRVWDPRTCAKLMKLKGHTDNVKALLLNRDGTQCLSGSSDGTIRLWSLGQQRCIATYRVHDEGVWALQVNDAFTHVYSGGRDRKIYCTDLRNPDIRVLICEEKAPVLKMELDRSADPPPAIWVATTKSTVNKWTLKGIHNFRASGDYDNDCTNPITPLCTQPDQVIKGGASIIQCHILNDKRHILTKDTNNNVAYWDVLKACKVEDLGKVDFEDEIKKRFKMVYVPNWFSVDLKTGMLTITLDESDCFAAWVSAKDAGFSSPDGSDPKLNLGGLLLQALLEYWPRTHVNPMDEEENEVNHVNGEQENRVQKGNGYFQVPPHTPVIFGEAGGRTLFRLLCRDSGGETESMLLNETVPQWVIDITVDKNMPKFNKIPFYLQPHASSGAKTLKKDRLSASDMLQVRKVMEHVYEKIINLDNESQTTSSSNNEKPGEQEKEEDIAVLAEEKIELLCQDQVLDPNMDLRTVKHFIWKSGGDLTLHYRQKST

One test has as its target USP1/UAF1 (Homo sapiens (Human), UniProt O94782). The test can be described thus: USP1/UAF1 activity, ubiquitin-rhodamine110-glycine (Ub-Rho) assay. The test is classed as biochemical. As to conditions: 0.1 nM USP1/UAF1, 100 nM Ub-Rho, 120 minutes; read-out: IC50 (nM), inhibitory effects on USP1/UAF1 activity. On the procedure: USP1/UAF1 activity was determined by using ubiquitin-rhodamine110-glycine (Ub-Rho; Boston Biochem) assay. Enzymatic reactions were conducted in an assay buffer (50 mM Tris-HCl, pH 7.8, 0.5 mM EDTA, 100 mM NaCl, 1 mM DTT, 0.01 BSA, and 0.01% Tween-20) that contained 0.1 nM USP1/UAF1. Each individual compound was tested at ten concentrations in the range of 0.0005 to 10 μM. The plates were incubated for 15 min to attain equilibrium, and then the enzymatic reaction was initiated by dispensing 10 μL of Ub-Rho solution (100 nM final concentration). After treating 120 minutes with Ub-Rho solution, the rhodamine fluorescence was acquired using a 480 nm excitation/540 nm emission filter set by using Envision instrument. The inhibition rate of the compound to USP1/UAF1 enzyme activity was calculated according to the following formula.
IC50 value is obtained by fitting the s-shaped dose response curve equation by using XL Fit software. The curve equation is Y=100/(1+10^(log C−log IC50)). C is the compound concentration.
`COc1ncnc(C2CC2)c1-c1nc2c(Cc3ccc(-c4nc(C(F)(F)F)cn4C)cc3)nccn2n1` [Example 18, 2-(4-cyclopropyl-6-methoxypyrimidin-5-yl)-8-(4-(1-methyl-4-(trifluoromethyl)-1H-imidazol-2-yl)benzyl)-[1,2,4]triazolo[1,5-a]pyrazine]: the IC50 turned out to be 11.2 nM.

Regarding `COc1ncnc(C2CC2)c1-c1nc2ccnc(Cc3ccc(-c4nc(C(F)(F)F)cn4C)cc3)n2n1` [Example 21, 2-(4-cyclopropyl-6-methoxypyrimidin-5-yl)-5-(4-(1-methyl-4-(trifluoromethyl)-1H-imidazol-2-yl)benzyl)-[1,2,4]triazolo[1,5-c]pyrimidine], the IC50 was 16.1 nM.

For `COc1ncnc(C2CC2)c1-c1nc2c(Cc3ccc(-c4nc(C(F)(F)F)cn4C4CC4)cc3)cccn2n1` [Example 24, 8-(4-(1-cyclopropyl-4-(trifluoromethyl)-1H-imidazol-2-yl)benzyl)-2-(4-cyclopropyl-6-methoxypyrimidin-5-yl)-[1,2,4]triazolo[1,5-a]pyridine], the IC50 was determined as 11.8 nM.

As for `COc1ncnc(C2CC2)c1-c1nc2c(Cc3ccc(-c4nc(C(F)(F)F)cn4C)c(F)c3)cccn2n1` [Example 25, 2-(4-cyclopropyl-6-methoxypyrimidin-5-yl)-8-(3-fluoro-4-(1-methyl-4-(trifluoromethyl)-1H-imidazol-2-yl)benzyl)-[1,2,4]triazolo[1,5-a]pyridine], the IC50 stood at 11.6 nM.

For `CCn1cc(C(F)(F)F)nc1-c1c(F)cc(Cc2cccn3nc(-c4c(OC)ncnc4C4CC4)nc23)cc1OC` [Example 26, 2-(4-cyclopropyl-6-methoxypyrimidin-5-yl)-8-(4-(1-ethyl-4-(trifluoromethyl)-1H-imidazol-2-yl)-3-fluoro-5-methoxybenzyl)-[1,2,4]triazolo[1,5-a]pyridine], the IC50 was 39.5 nM.

Consider `COc1ncnc(C2CC2)c1-c1nc2c(Cc3ccc(-c4nc(C(F)(F)F)cn4C4CC4)cc3)nccn2n1` [Example 29, 8-(4-(1-cyclopropyl-4-(trifluoromethyl)-1H-imidazol-2-yl)benzyl)-2-(4-cyclopropyl-6-methoxypyrimidin-5-yl)-[1,2,4]triazolo[1,5-a]pyrazine], for which the IC50 was 34.6 nM.

For the compound `COc1ncnc(C2CC2)c1-c1nc2c(Cc3ccc(-c4nc(C(F)(F)F)cn4C)c(F)c3)nccn2n1` [Example 30, 2-(4-cyclopropyl-6-methoxypyrimidin-5-yl)-8-(3-fluoro-4-(1-methyl-4-(trifluoromethyl)-1H-imidazol-2-yl)benzyl)-[1,2,4]triazolo[1,5-a]pyrazine], the IC50 was found to be 41.4 nM.

As to `CCn1cc(C(F)(F)F)nc1-c1c(F)cc(Cc2nccn3nc(-c4c(OC)ncnc4C4CC4)nc23)cc1F` [Example 31, 2-(4-cyclopropyl-6-methoxypyrimidin-5-yl)-8-(4-(1-ethyl-4-(trifluoromethyl)-1H-imidazol-2-yl)-3,5-difluorobenzyl)-[1,2,4]triazolo[1,5-a]pyrazine], the IC50 was found to be 57.5 nM.

On to `COc1ncnc(C2CC2)c1-c1nc2c(Cc3ccc(-c4nc(C(F)(F)F)cn4C4CC4)cc3)cncn2n1` [Example 32, 8-(4-(1-cyclopropyl-4-(trifluoromethyl)-1H-imidazol-2-yl)benzyl)-2-(4-cyclopropyl-6-methoxypyrimidin-5-yl)-[1,2,4]triazolo[1,5-c]pyrimidine], for which the IC50 turned out to be 111 nM.

As to `COc1ncnc(C2CC2)c1-c1nc2c(Cc3ccc(-c4nc(C(F)(F)F)cn4C)c(F)c3)cncn2n1` [Example 33, 2-(4-cyclopropyl-6-methoxypyrimidin-5-yl)-8-(3-fluoro-4-(1-methyl-4-(trifluoromethyl)-1H-imidazol-2-yl)benzyl)-[1,2,4]triazolo[1,5-c]pyrimidine], the IC50 turned out to be 94.5 nM.

`CCn1cc(C(F)(F)F)nc1-c1c(F)cc(Cc2cncn3nc(-c4c(OC)ncnc4C4CC4)nc23)cc1F` [Example 34, 2-(4-cyclopropyl-6-methoxypyrimidin-5-yl)-8-(4-(1-ethyl-4-(trifluoromethyl)-1H-imidazol-2-yl)-3,5-difluorobenzyl)-[1,2,4]triazolo[1,5-c]pyrimidine]: the IC50 is 242 nM.

For the compound `COc1ncnc(C2CC2)c1-c1nc2cccc(Cc3ccc(-c4nc(C(F)(F)F)cn4C4CC4)cc3)n2n1` [Example 37, 5-(4-(1-cyclopropyl-4-(trifluoromethyl)-1H-imidazol-2-yl)benzyl)-2-(4-cyclopropyl-6-methoxypyrimidin-5-yl)-[1,2,4]triazolo[1,5-a]pyridine], the IC50 was 9.53 nM.

As to `COc1ncnc(C2CC2)c1-c1nc2cccc(Cc3ccc(-c4nc(C(F)(F)F)cn4C)c(F)c3)n2n1` [Example 38, 2-(4-cyclopropyl-6-methoxypyrimidin-5-yl)-5-(3-fluoro-4-(1-methyl-4-(trifluoromethyl)-1H-imidazol-2-yl)benzyl)-[1,2,4]triazolo[1,5-a]pyridine], the IC50 is 5.44 nM.

Consider `CCn1cc(C(F)(F)F)nc1-c1c(F)cc(Cc2cccc3nc(-c4c(OC)ncnc4C4CC4)nn23)cc1OC` [Example 39, 2-(4-cyclopropyl-6-methoxypyrimidin-5-yl)-5-(4-(1-ethyl-4-(trifluoromethyl)-1H-imidazol-2-yl)-3-fluoro-5-methoxybenzyl)-[1,2,4]triazolo[1,5-a]pyridine], for which the IC50 worked out at 18.8 nM.

For `CCn1cc(C(F)(F)F)nc1-c1c(F)cc(Cc2nccc3nc(-c4c(OC)ncnc4C4CC4)nn23)cc1F` [Example 42, 2-(4-cyclopropyl-6-methoxypyrimidin-5-yl)-5-(4-(1-ethyl-4-(trifluoromethyl)-1H-imidazol-2-yl)-3,5-difluorobenzyl)-[1,2,4]triazolo[1,5-c]pyrimidine], the IC50 turned out to be 732 nM.

Take `COc1ncnc(C2CC2)c1-c1nc2cncc(Cc3ccc(-c4nc(C(F)(F)F)cn4C4CC4)cc3)n2n1` [Example 43, 5-(4-(1-cyclopropyl-4-(trifluoromethyl)-1H-imidazol-2-yl)benzyl)-2-(4-cyclopropyl-6-methoxypyrimidin-5-yl)-[1,2,4]triazolo[1,5-a]pyrazine]: the IC50 was determined as 38.9 nM.

On to `COc1ncnc(C2CC2)c1-c1nc2cncc(Cc3ccc(-c4nc(C(F)(F)F)cn4C)c(F)c3)n2n1` [Example 44, 2-(4-cyclopropyl-6-methoxypyrimidin-5-yl)-5-(3-fluoro-4-(1-methyl-4-(trifluoromethyl)-1H-imidazol-2-yl)benzyl)-[1,2,4]triazolo[1,5-a]pyrazine], for which the IC50 was found to be 78.3 nM.

As to `CCn1cc(C(F)(F)F)nc1-c1c(F)cc(Cc2cncc3nc(-c4c(OC)ncnc4C4CC4)nn23)cc1F` [Example 45, 2-(4-cyclopropyl-6-methoxypyrimidin-5-yl)-5-(4-(1-ethyl-4-(trifluoromethyl)-1H-imidazol-2-yl)-3,5-difluorobenzyl)-[1,2,4]triazolo[1,5-a]pyrazine], the IC50 amounted to 99.7 nM.

For a further test, the system named is BRCA mutant human breast cancer MDA-MB-436 cell line. Description: Growth inhibition of MDA-MB-436 cells, CCK-8 method. It is filed as cell-based. The settings on record: MDA-MB-436, 168 h, 7 days incubation, read-out: IC50 (nM), inhibition of proliferation of MDA-MB-436 cells, CCK-8 method. Here is the method: The cells were cultured in complete medium (DMEM medium+10% FBS+Insulin+glutathione). When the confluence reached about 80%, cells were digested and gently dispensed from the bottom of the dish with a 1 mL pipette. Cell suspension was collected and centrifuged at 500 rpm for 3 min. The supernatant was discarded, and the cell pellet were re-suspended in complete medium. The cells were seeded into a culture dish at an appropriate proportion, and then cultured in a 5% CO2 incubator at 37° C. The assay was carried out when the cells were in optimum condition and the confluence was reached 80%. Cells in the logarithmic growth phase were taken to centrifugate, and the culture supernatant was removed. The cells were resuspended in refresh complete medium and counted. The resuspended cells were seeded at 3000/well in a 96-well plate and incubated at 37° C., 5% CO2 incubator overnight. The compound was prepared as below: 1000× dilution tested compound solution to 40× test compound solution by adding 5 μL 1000× compound solution to 120 μL Medium (25-fold dilution). The solution was mixed by oscillation, 0.1% DMSO was used as the control.
The next day, the 96-well plate inoculated with cells was taken out from the incubator, and the culture supernatant was removed. Then fresh medium of 195 uL/well and 5 μL/well of 40× test compound solution as mentioned above were added into the 96 well plate, respectively. Finally, the plate was incubated for 7 days in a 37° C. 5% CO2 incubator. The medium containing compound was changed on the fourth day.
CCK Method: After 7 days, 20 μL of CCK-8 was added to each well and shaken gently, then was cultured for 4 hours. The plate was shaken for 5 min after incubation, the absorbance values of 450 nm or 650 nm wavelengths were recorded respectively (OD=absorbance value of 450 nm−absorbance value of 650 nm) by using the multifunction readout instrument.
Data were analyzed by software GraphPad Prism 6.0. The inhibitory activity of compounds on cell proliferation was plotted using cell survival rate against the compound concentration as coordinates. Cell survival rate %=(ODcompound−ODbackground)/(ODDMSO−ODbackground)×100. The IC50 value was fitted by the s-shaped dose response curve equation: Y=100/(1+10^(log C−log IC50)), and C was the compound concentration.
Table 3 summarizes the inhibitory effect data (IC50) of the compounds on the proliferation of human breast cancer cells MDA-MB-436 determined by CCK-8 method.
For orientation: Tetrazolium assays rely on reduction of a dye to a coloured formazan, in cell work by metabolically active cells.
For the compound `CC(C)c1ccccc1-c1nc2c(Cc3ccc(-c4nc(C(F)(F)F)cn4C)cc3)ccnn2n1` [Example 9, 2-(2-isopropylphenyl)-8-(4-(1-methyl-4-(trifluoromethyl)-1H-imidazol-2-yl)benzyl)-[1,2,4]triazolo[1,5-b]pyridazine], the IC50 worked out at 1170 nM.

Regarding `CC(C)c1ccccc1-c1nc2cccc(Cc3ccc(-c4nc(C(F)(F)F)cn4C)cc3)n2n1` [Example 10, 2-(2-isopropylphenyl)-5-(4-(1-methyl-4-(trifluoromethyl)-1H-imidazol-2-yl)benzyl)-[1,2,4]triazolo[1,5-a]pyridine], the IC50 was 226 nM.

With `Cc1cnn(C(C)C)c1-c1nc2cccc(Cc3ccc(-c4nc(C(F)(F)F)cn4C)cc3)n2n1` [Example 15, 2-(1-isopropyl-4-methyl-1H-pyrazol-5-yl)-5-(4-(1-methyl-4-(trifluoromethyl)-1H-imidazol-2-yl)benzyl)-[1,2,4]triazolo[1,5-a]pyridine], the IC50 was found to be 10.3 nM.
